Measured values reported in US20210308138A1, “TISSUE TRANSGLUTAMINASE MODULATORS FOR MEDICINAL USE” (Aarhus Universitet, priority 2018, published 2021).

Columns and labels:
[1] = target: T1, purified human TG2 (Homo sapiens, UniProt P21980); experiment: Conformational shift assay by native polyacrylamide gel electrophoresis (native-PAGE); assay type: biochemical; settings: TG2 2.5 uM; 1 mM LDN-27219, 1 mM GTPNa2, or 0.2 mM Z-DON with CaCl2
T1 construct: purchased Zedira (Darmstadt, Germany); host or cells: insect cells
T1 sequence (P21980 1-687): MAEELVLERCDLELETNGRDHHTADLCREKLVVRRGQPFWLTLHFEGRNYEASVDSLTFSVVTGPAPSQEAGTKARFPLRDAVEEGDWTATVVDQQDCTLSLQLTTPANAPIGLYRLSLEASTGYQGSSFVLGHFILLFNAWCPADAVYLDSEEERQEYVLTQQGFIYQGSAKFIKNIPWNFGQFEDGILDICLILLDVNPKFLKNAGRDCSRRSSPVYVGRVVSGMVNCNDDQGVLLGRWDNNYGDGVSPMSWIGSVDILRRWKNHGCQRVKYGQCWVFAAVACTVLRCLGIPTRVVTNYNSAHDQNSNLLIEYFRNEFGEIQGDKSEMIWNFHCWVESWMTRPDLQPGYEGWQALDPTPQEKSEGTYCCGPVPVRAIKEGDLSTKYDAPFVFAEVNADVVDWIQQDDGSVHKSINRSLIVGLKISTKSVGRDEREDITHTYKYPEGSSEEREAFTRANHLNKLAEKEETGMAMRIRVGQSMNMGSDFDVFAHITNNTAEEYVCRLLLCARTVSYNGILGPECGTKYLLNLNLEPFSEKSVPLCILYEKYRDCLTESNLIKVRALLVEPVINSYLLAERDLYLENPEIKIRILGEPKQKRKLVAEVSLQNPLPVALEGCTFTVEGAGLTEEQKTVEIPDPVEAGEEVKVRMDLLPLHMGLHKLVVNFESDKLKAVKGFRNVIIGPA
Procedure: For the conformational shift assay using native polyacrylamide gel electrophoresis (native-PAGE) purified and functional human TG2 protein produced in insect cells was obtained from Zedira (Darmstadt, Germany).
Native gel electrophoresis experiments were performed using a method similar to those previously described (Pinkas D M, et al., PLoS Biol, 2007, 5(12), 2788-2796.) (Iversen R, et al., Proc Natl. Acad. Sci., 2014, 111(43), 17146-17151). Briefly, TG2 (2.5 uM) was incubated for 30 min at room temperature in preincubation buffer (75 mM imidazole, 0.5 mM EDTA, 5 mM DTT [pH 7.2], 10% DMSO) with or without 1 mM GTPNa2 or 1 mM LDN-27219 before adding Native Sample Buffer for Protein Gels (Bio-Rad) or in preincubation buffer with 0.2 mM Z-DON 30 min prior addition of 5 mM of CaCl2 for 20 min. Native buffer was added (dilution 1:2), and 1.5 ug of protein was loaded onto a 4-20% Criterion™ TGX Stain-Free™ gel (Bio-Rad) using Tris-glycine as the running buffer. For 75 min, 125 V was applied at 4° C. The bands were visualized using stain-free technology by exposing the gels to UV light and capturing the image using a PXi 4 Touch image analysis system (Syngene). Band intensity analysis was carried out using GeneTools 4 software (Syngene).

[2] = system: vascular smooth muscle cells (VSMCs) potassium currents; experiment: Whole-cell patch-clamp of K+ outward currents in isolated vascular smooth muscle cells; assay type: cell-based, rat; settings: LDN-27219 3·10^−5 mol/L 12 min; VA-5 5·10^−5 mol/L one hour incubation
Procedure: For isolation of VSMCs, rat mesenteric arteries were dissected as previously described, opened longitudinally and stored in ice-cold dissociation solution containing (mmol/L): 119 NaCl, 4.7 KCl, 1.18 KH2PO4, 1.17 MgSO4, 24.9 NaHCO3, 0.027 EDTA, and 11 glucose, pH=7.4. Arteries were then equilibrated during 10 min in a dissociation solution with bovine albumin serum (BSA; 1 mg/mL) at 37° C. and then exposed to the same solution supplemented with papain (0.5 mg/mL; Worthington Biochemical Corp., Lakewood, N.J., USA) and dithiothreitol (DTT; 1 mg/mL) at 37° C. for 8 min. Arteries were then washed in ice-cold dissociation solution and moved to dissociation solution containing BSA (1 mg/mL) and collagenase (0.7 mg/mL type F and 0.4 mg/mL type H; Worthington Biochemical Corp.) at 37° C. for 3 min. […]
Membrane currents were recorded under the whole-cell configuration of the patch-clamp technique using an Axon Multiclamp 700A amplifier (Axon instruments, Molecular Devices, CA, USA). […] Current-voltage relations were determined using 600 ms voltage ramps from −100 to 160 mV and a holding potential (Vh) of −65 mV for SMCs.
Amplitudes of K^+-outward currents were measured in control conditions and 12 min after the addition of LDN-27219 (3·10^−5 mol/L) to the extracellular solution by a perfusion system.

[3] = Pharmacokinetic study, single intravenous dose, non-compartmental model; assay type: in vivo; settings: mouse, blood, single 2 mg/kg intravenous dose, mice

- clearance [3]: 52.3 mL/min/kg
- half-life [3]: 4.89 h
- Vd ([3]; read-out: Volume of distribution): 21.4 L/kg
Compound: NNC(=O)CSc1nc2scc(-c3ccccc3)c2c(=O)n1-c1ccccc1 [LDN-27219]
- relative abundance of closed / open conformation of TG2 [1]: increase the relative abundance of the closed conformation
- potassium currents compared to control conditions [2]: potassium currents significantly bigger
